Measurements: US20230364419A1, “USE OF E[…] ENHANCE THE DELIVERY OF PHARMACEUTICAL AGENTS AND OTHER […] THE SURFACE MUCOSA AND WALL OF THE URETER AND RENAL PELVIS, AND INTO THE RENAL PARENCHYMA” (priority 2022, published 2023)
“Also recorded” adds a separate entry of the source.

How the values were obtained:
[1] = Porcine ureteral EMDA proof-of-concept study: methylene blue infused through the ureteral catheter with or without current; assay type: in vivo, Yorkshire pigs; settings: for microscopic penetration of methylene blue into the ureteral wall (frozen section / histopathology): 20 min, infusion 5 ml/min
Source text: Cystoscopy is used to place a 0.035 in. guidewire into the ureter and up into the renal pelvis. The cystoscope is removed and the EMDA delivery catheter is advanced over the 0.035-inch super-stiff guidewire into the ureter up to the level of the ureteropelvic junction (i.e., not into the renal pelvis). A fluoroscopic image is obtained to confirm the correct position of the catheter in the ureter with the proximal tip just inside the renal pelvis. The 0.035 in. guidewire is removed and the silver wire is passed into the EMDA catheter. The circumference of the tip of silver wire (connected to positive electrode of EMDA generator) is larger than the exit hole in the distal tip of the EMDA catheter and thus its passage stops at the catheter’s tip and occludes the end-hole, thereby preventing any flow of instilled fluid from the tip of the catheter. A dispersing electrode (negative) is placed on the flank area. The EMDA is then activated and the fluid containing the intended medication is instilled at 5 ml/min via a drug infusion pump for 20 minutes.
An electrical current of 10 mA is used to achieve a current density of less than 0.5 mA/cm^2. This value was obtained based on prior work in other areas with regard to the safety and efficacy of EMDA. The ureteral surface was multiplied [20 cm (length)×(circumference≈1 cm) ≈20 cm^2] by 0.5 mA/cm^2. A pulsed or direct current can be used during EMDA.
As proof of concept, a porcine study was performed (IACUC approved protocol: 21-131). A charged molecule, methylene blue, was instilled which is suitable for EMDA because of its net positive charge, small molecular size, and strong blue color. Via the EMDA catheter, a pulsed electrical current of 10 mA was applied for 20 minutes during instillation of the methylene blue solution The pigs were then euthanized and both ureters were harvested. Visually, the difference in the color density in the experimental (EMDA ureter) and control ureter (without EMDA) was apparent.
Two Yorkshire pigs were placed under general anesthesia. Cystoscopy was used to place a 0.035 in. super-stiff™ guidewire into each ureter. A prefabricated ureteral catheter with equidistant (5 mm) fenestrations in three rows was advanced into each ureter. A silver wire was then passed into each ureteral catheter; the circumference of the silver wire was larger than the terminal opening in the catheter such that its passage stopped at the catheter’s tip, thereby preventing any flow of instilled fluid from the tip of the catheter. Methylene blue, a heterocyclic aromatic dye with a net positive charge, was infused through each catheter at a rate of 5 ml/min. In the experimental ureter, a positive pulsed electrical current of 10 mA was applied using a Physionizer® EDMA device. […]

[2] = Methylene blue infusion into the renal pelvis with or without EMDA activation; assay type: in vivo
Description: In another example, cystoscopy was used to place a 0.035 in. guidewire into the ureter and pass it up into the renal pelvis. The cystoscope is removed and a 5 to 15 Fr pigtail catheter is advanced over the guidewire; the guidewire is removed. A retrograde pyelogram is performed and the fluid is then drained from the renal pelvis and measured in order to obtain the volume of the renal pelvis. The guidewire is replaced and the pigtail catheter is removed and the EMDA delivery catheter is advanced over the guidewire into the ureter. A fluoroscopic image is obtained to confirm the correct position of the catheter with the proximal tip inside the renal pelvis. The guidewire is removed and the catheter assumes its nonintubated “C” shape along its proximal end; the silver wire is passed into the EMDA catheter (alternatively a pre-assembled catheter will be deployed via a preplaced ureteral access sheath) following the “C” shape of the distal end of the catheter.
For renal pelvis EMDA, an electrical current of 4 mA (using a dedicated EMDA generator) is used in the C-shape catheter to achieve a current density of less than 0.5 mA/cm^2. This value is obtained based on prior work in the bladder with regard to the safety and efficacy of EMDA; the collecting system surface (8 cm^2) was multiplied by 0.5 mA/cm^2. A pulsed current is used during EMDA; however, direct current is also applicable.

Compound: CN(C)c1ccc2nc3ccc(=[N+](C)C)cc-3sc2c1 [methylene blue]
- microscopic penetration of methylene blue into the ureteral wall (frozen section / histopathology) ([1]; control ureter, without EMDA): only patchy staining of the urothelium; also recorded: minimal, patchy staining of the urothelial lining with negligible penetration of methylene blue beyond the urothelium; also recorded: patchy methylene blue staining was seen only on the urothelium with negligible deeper penetration
- microscopic penetration of methylene blue into the ureteral wall (frozen section / histopathology) ([1]; experimental ureter, with EMDA, pulsed current 10 mA): could be delivered beyond the urothelium and deeply into the wall of the ureter; also recorded: dense blue staining of the urothelium; also recorded: penetration of methylene blue throughout the wall of the EMDA treated ureter; also recorded: diffuse penetration of methylene blue into the urothelium, lamina propria, muscularis propria, and periureteral tissue
- macroscopic staining of the interior surface of the ureter ([1]; with EMDA): intense staining of the experimental ureter
- macroscopic staining of the interior surface of the ureter ([1]; without EMDA): minimal staining of the urothelial lining
- macroscopic staining of the renal pelvis ([2]; with EMDA activation): Intense staining of the renal pelvis
- microscopic staining of urothelium and submucosa of the renal pelvis ([2]; with EMDA activation): Deep blue staining of urothelium and the submucosa of the renal pelvis
- tissue injury of the renal pelvis (H&E staining) ([2]; with EMDA activation): normal architecture with no signs of acute injury
- macroscopic staining of the renal pelvis ([2]; without EMDA activation): Faint staining of the renal pelvis
- microscopic staining of urothelium and submucosa of the renal pelvis ([2]; without EMDA activation): Blue staining of urothelium with less intensity and negligible methylene blue staining the submucosa of the renal pelvis
- tissue injury of the renal pelvis (H&E staining) ([2]; without EMDA activation): normal architecture with no evidence of injury
